Experiment: gradient 5% acetonitrile 3 min, to 50% in 2 min, to 85% in 15 min, held 3 min, 100 µL/min
Conditions: column: Zorbax Extend-C18 2.1 x 50 mm; eluents: water / acetonitrile, 0.1% formic acid
Outline: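 Using water and acetonitrile that each contained 0.1% formic acid, mixtures of ~100 pure standards were separated at 100 μL/min on a Zorbax Extend-C18 column (2.1 × 50 mm, 1.8 μm). The HPLC fed a quadrupole time-of-flight mass spectrometer working in positive and negative ionization mode, with dead and dwell volumes of 40 μL and 900 μL. Data were acquired over 3 months. Retention time was read from computationally picked adduct peaks after manual inspection of each.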

Row | RP-LC retention time | SMILES
1 | 1040 s | Cc1ccccc1-c1noc(CN2C(=O)COc3ccccc32)n1
2 | 726 s | Cc1nc(C2CC23CCN(S(=O)(=O)c2cccnc2)CC3)no1 (stereo not drawn)
3 | 975 s | Cc1cc2c(c(=O)n(-c3ccccc3)c(=O)n2CC(=O)Nc2cccc(C(C)C)c2)n1C
4 | 773 s | CN(C)CCN(C(=O)CCc1ccccc1)c1nc2ccc(F)cc2s1
5 | 599 s | CCc1noc2nc(CCC(=O)NCCCN3CCN(C)CC3)nc(N3CCCCC3)c12
6 | 1010 s | CCCOc1ccc(-c2nc(N3CCC(C)CC3)c3ccccc3n2)cc1
7 | 756 s | COCCCNC(=O)CN1c2ccc(F)cc2-c2ccccc2S1(=O)=O
8 | 759 s | O=C(NC1CCCCCC1)c1nc(N2CCCC2)c2ccccc2n1
9 | 686 s | CCOC(=O)CNC(=O)NCCn1c(C(F)(F)F)nc2ccccc21
10 | 741 s | CCN1C(=O)C2CC3(CCN(C(=O)CC4CCCC4)CC3)CN2C1=O (stereo not drawn)
11 | 578 s | CCC(=O)N1CCc2cc(N3CC(C(=O)NCc4ccncc4)CC3=O)ccc21 (stereo not drawn)
12 | 996 s | Cc1nc(CC(=O)Nc2nc(-c3ccc(Br)cc3)cs2)cs1
13 | 868 s | CC(=O)N1c2ccc(S(=O)(=O)N3CCCCC3)cc2CC1C(=O)Nc1ccc(C)cc1C (stereo not drawn)
14 | 658 s | CCN(CC)CCNC(=O)c1sc2ncn(CC(=O)N3CC(C)CC(C)C3)c(=O)c2c1C (stereo not drawn)
15 | 852 s | CCC(=O)N1CCc2ccccc2C1C(=O)N1CCN(c2ccccc2)CC1 (stereo not drawn)
16 | 644 s | CCCn1c(CCNC(=O)c2cccc(F)c2)nc2cccnc21
17 | 862 s | Cc1ccc(CN2C(=O)C3(CCOCC3)CC2c2nnnn2C(C)(C)C)cc1C (stereo not drawn)
18 | 605 s | O=C(c1ccncc1)N1CCCN(c2cc(-c3ccc4c(c3)OCO4)[nH]n2)CC1
19 | 659 s | CC(C)CN1C(=O)c2ccccc2C(C(=O)NCc2cccnc2)C12CCCCC2 (stereo not drawn)
20 | 566 s | O=C(NCCN1CCOCC1)c1ccc(-c2ccc(N3CCCCCC3)nc2)cc1
21 | 706 s | COCCN1C(=O)[C@H]2CN(Cc3cccc(OC(F)(F)F)c3)C[C@H]2C1=O
22 | 725 s | O=C(Nc1cnc(N2CCOCC2)nc1)c1ccccc1Br
23 | 682 s | Cc1ccc(Nc2cc(N3CCC(C(=O)N4CCSCC4)CC3)ncn2)cc1
24 | 601 s | O=C(NCc1cc(F)ccc1F)c1cn2c(n1)CCCC2
25 | 820 s | Cc1cc(C)c(C(=O)N2CCC(CC(=O)NCc3cccc(Br)c3)CC2)[nH]1

Row | RP-LC retention time | SMILES
26 | 605 s | CCN(CC)c1ccc(C(=O)N2CCC(c3cc(N)on3)CC2)cc1
27 | 990 s | CSc1nc2ccc3nc(NC(=O)c4c(F)cccc4F)sc3c2s1
28 | 748 s | CCCN1C(=O)Cc2cc(C(=O)N3CCN(c4ccc(OC)cc4)CC3)ccc21
29 | 790 s | Cc1cc(C(=O)N2CCCCC2)c2c(=O)n(CC(=O)NCCC(C)C)c(=O)n(C)c2n1
30 | 1040 s | O=C(c1ccccc1F)N1CCN(c2nc(-c3ccc(Cl)cc3)no2)CC1
31 | 779 s | Cc1noc2ncn(CC(=O)NCc3cccc(Br)c3)c(=O)c12
32 | 1020 s | COC(=O)c1ccc2c(=O)n(-c3cccc(OC)c3)c(N3CCSC3)nc2c1
33 | 916 s | Cc1cc(-c2nnc(-c3ccc(F)cc3)o2)c(C)n1CC(=O)NCc1ccc2c(c1)OCO2
34 | 732 s | Nc1cc(C2CCN(C(=O)Nc3ccc(Br)cc3)CC2)no1
35 | 910 s | COc1ccc(NC(=O)c2nnc(CSCC(=O)NCCc3c[nH]c4ccc(C)cc34)s2)cc1
36 | 717 s | CSc1nnc(-c2nn(C)c3c2CN(C(=O)c2ccccc2Br)CC3)n1C
37 | 832 s | CCCCNC(=O)c1ccc(-c2ccc3c(c2)CCN3C(C)=O)cc1
38 | 873 s | Cc1ccc(NC(=O)N2C[C@@H](F)C[C@H]2C(=O)N2CCc3ccccc3C2)cc1F
39 | 561 s | COCCNC(=O)CN1CCN(c2cc(C(=O)O)c3cc(NC(=O)C(C)(C)C)ccc3n2)CC1
40 | 991 s | CCS(=O)(=O)c1ccc2c(c1)N(Cc1nc(-c3ccc(OC(C)C)cc3)no1)C(=O)CO2
41 | 649 s | CCOC(=O)N1CCN(c2cc(C(=O)O)c3cc(NC(=O)c4cccc(C)c4)ccc3n2)CC1
42 | 1160 s | CC(C)n1c(=O)oc2cc(-c3noc(-c4ccccc4F)n3)ccc21
43 | 662 s | COc1ccc(CCS(=O)(=O)NCC2(CO)CC2)cc1
44 | 968 s | O=C(NCc1ccc(F)cc1Cl)c1csc(C(=O)NC2CCCC2)n1
45 | 839 s | O=C1CCCN1c1ccc(Cn2nc3c(-c4nc(-c5ccccc5)no4)cccn3c2=O)cc1
46 | 858 s | CCOCCCNC(=O)C1CCN(C2=NS(=O)(=O)C(c3ccc(C(C)C)cc3)=C2C)CC1
47 | 600 s | Cc1cccc(-c2nc(Cn3ccnc3)no2)c1
48 | 1110 s | COc1ccc(-c2ncc3c(n2)CCN(S(=O)(=O)c2cccc(C(F)(F)F)c2)C3)cc1
49 | 924 s | COc1ccc(-c2cc(C(=O)N(C)C3CCCCC3)nn2C2CCS(=O)(=O)C2)cc1 (stereo not drawn)

The next lines start with the compound.

Row | SMILES | RP-LC retention time
50 | O=C(NCCc1cccs1)c1cc2n(n1)CCCN(Cc1ccc(F)cc1)C2=O | 868 s
51 | CN1CCn2cc(S(=O)(=O)NCc3cc(F)cc(F)c3)cc2C1=O | 691 s
52 | CS(=O)(=O)N1CCC(C(=O)Nc2ccc(C(F)(F)F)cc2)Oc2ccc(Cl)cc21 (stereo not drawn) | 1060 s
53 | Cc1oc(C2CCN(C(=O)NCc3cccc(F)c3)CC2)nc1C(=O)N1CCOCC1 | 903 s
54 | CSc1ccc(-c2nc3cnccn3c2Nc2cccc(C(=O)NCCN(C)C)c2)cc1 | 605 s
55 | Cc1ccc(CNC(=O)C2(C)CCCN(C(=O)Nc3ccc(F)cc3)C2)cc1 (stereo not drawn) | 899 s
56 | CCOc1ccc(-c2noc(N3CCC(C(=O)Nc4cc(Cl)ccc4OC)CC3)n2)cc1OC | 1090 s
57 | CCc1nc2c(=O)n(CC(=O)N3CCN(c4cc(C)ccc4C)CC3)nc(C)c2s1 | 911 s
58 | CCOc1ccc(-c2ccc(=O)n(Cc3nc(-c4ccccn4)no3)n2)cc1 | 813 s
59 | COC(=O)CNC(=O)Nc1ncc(-c2ccccc2)n1C | 596 s
60 | Cc1cccc(-c2nc(Cn3nnc(-c4nc(-c5ccccc5)no4)c3C)c(C)o2)c1 | 1280 s
61 | COc1ccccc1-c1noc(C2CCCN2C(=O)c2ccccn2)n1 (stereo not drawn) | 725 s
62 | O=C(Cn1cc(S(=O)(=O)Cc2ccccc2F)c2ccccc21)NCC1CCCO1 (stereo not drawn) | 806 s
63 | Cc1ccc(C)c(-c2nc(NC(=O)c3cc(C)on3)sc2C)c1 | 1110 s
64 | O=C(Nc1ccccc1F)NC1CCN(C(=O)N2C[C@H]3C[C@H](C2)[C@H]2CCCC(=O)N2C3)CC1 | 677 s
65 | COc1ccc(NC(=O)c2ccc3c(c2)OCCO3)c([N+](=O)[O-])c1 | 874 s
66 | CCN(CC)C(=O)N1CC(Cn2c(C)cnc2-c2ccncc2)C1 | 568 s
67 | CCC(C)NC(=O)c1ccc(-c2cccs2)nc1 (stereo not drawn) | 816 s
68 | CCc1ccc(-c2cc(C(=O)N3CCN(c4cc(=O)n(C(C)C)c(=O)n4C(C)C)CC3)[nH]n2)cc1 | 946 s
69 | CCCn1cc(C(=O)NCC(C)C)c(S(=O)(=O)N2CCN(c3ccccc3OCC)CC2)n1 | 1180 s

Row | SMILES | RP-LC retention time
70 | O=C(Cn1c(=O)c2cc(C3CC3)nn2c2ncccc21)Nc1ccc2c(c1)OCCO2 | 736 s
71 | COc1cc(N2CC(CNS(C)(=O)=O)OC2=O)cc(OC)c1OC (stereo not drawn) | 593 s
72 | O=C(CCn1c(=O)oc2ccccc21)Nc1nc(-c2ccccc2)cs1 | 961 s
73 | O=C(Cn1c(-c2nnco2)cc2ccccc21)NCC1CCCO1 (stereo not drawn) | 668 s
74 | CCC(CO)NCc1ccc(-c2ccc(Cl)cc2Cl)o1 (stereo not drawn) | 692 s
75 | O=C1CCCc2cc(S(=O)(=O)N3CCC(C(=O)Nc4cccc(Cl)c4)CC3)ccc2N1 | 826 s
76 | CCCN(C)c1nccnc1OC1CCN(C(=O)C(CC)CC)C1 (stereo not drawn) | 842 s
77 | O=C(Cn1nc2n(c1=O)CCCC2)NCc1ccccc1Br | 663 s
78 | COC(=O)CNC(=O)C1COc2ccc(NC(=O)C(C)C)cc2C1 (stereo not drawn) | 658 s
79 | CCc1cc(=O)n(CC(=O)NCc2ccccc2OC)c(N)n1 | 602 s
80 | COCCc1noc(C2CN(S(=O)(=O)c3ccccc3)C2)n1 | 751 s
81 | Cc1cc(C)c2c(-n3cccc3)nn(CC(=O)NC(C)CCc3ccccc3)c2n1 (stereo not drawn) | 1080 s
82 | O=C(NCCc1cccs1)c1nnc(-c2ccc(S(=O)(=O)N3CCCC3)cc2)o1 | 889 s
83 | CCc1ccc(-c2noc(Cn3c(=O)n(-c4ccc(F)cc4)c(=O)c4sccc43)n2)cc1 | 1090 s
84 | CCCOC(=O)c1cccc(Nc2nc(C(=O)OCC)nc3ccccc23)c1 | 955 s
85 | O=C([C@@H]1C[C@H](F)CN1S(=O)(=O)c1cc(F)cc(F)c1)N1CCCCC1 | 837 s
86 | Clc1ccccc1-c1nnc(SCc2cccnc2)o1 | 621 s
87 | Cc1cc(C)cc(NC(=O)C2CCCN2S(=O)(=O)c2ccc3c(c2)CCCC(=O)N3)c1 (stereo not drawn) | 835 s
88 | CC(C)(O)CC[C@@H](O)[C@](C)(O)[C@H]1CC[C@@]2(O)C3=CC(=O)[C@@H]4C[C@@H](O)[C@@H](O)C[C@]4(C)[C@H]3CC[C@]12C | 629 s
